One may read the IC50 as the concentration at which inhibition is half-maximal. In general, melting point refers to the temperature, or range, at which the solid turns liquid.

Molecules are shown by their SMILES.

Series [1] has as its target 20-HETE-Producing Enzyme derived from Human Renal Microsome. Kind of series: Inhibitory action to 20-HETE-producing enzyme derived from human renal microsome. The format is biochemical. The note with it: human renal microsome fraction, tritium-arachidonic acid substrate, NADPH, 37° C., 1.5 hours, pH 7.4; read-out: IC50 (inhibition of 20-HETE production). On the procedure: Inhibitory Action to 20-HETE-Producing Enzyme derived from Human Renal Microsome
With regard to the compounds listed in the above table, their inhibitory actions to 20-HETE production were tested.
This test was carried out in accordance with a method mentioned in J. Pharmacol. Exp. Ther., volume 268, page 474 (1994).
A solution of the test compound adjusted to 1 μM using DMSO was added to a 50 mM of 3-morpholinopropanesulfonic acid buffer (MOPS) (pH 7.4) containing 5 mM of magnesium chloride and 1 mM of sodium ethylenediaminetetraacetate (EDTA), then human renal microsome fraction (Human Cell Culture Center, Anatomic Gift Foundation), [5,6,8,9,11,12,15]tritium-arachidonic acid and NADPH were added thereto as an enzymatic source, a substrate and a coenzyme, respectively and reaction was carried out at 37° C. for 1.5 hours. Formic acid was added to the reaction solution to stop the reaction and then acetonitrile was added thereto (final concentration: 50%). Amount of 20-HETE produced thereby was measured using a high performance liquid chromatography equipped with a radioactive substance detector having an ODS column (Biosil C18; manufactured by Biorad).
Amount of 20-HETE produced when no compound was added was defined as 100% and the concentration of the compound when production of 20-HETE was inhibited to an extent of 50% upon addition of a compound (IC50 value) was calculated.

The compound `CCN1CCN(c2ccc(N/C=N/O)cc2Cl)CC1` [Compound 74] yielded a melting point of 207 to 209 °C. In series [1], the concentration for half-maximal inhibition (IC50) was 0.0732 µM.

Turning to `O/N=C/Nc1ccc(N2CCSCC2)c(Br)c1` [Compound 4], the melting point lay within 149 to 151 °C. The IC50 in series [1] is 0.0023 µM.

The compound `O=C(CN1CCN(c2ccc(N/C=N/O)cc2C(F)(F)F)CC1)N1CCOCC1` [Compound 103] came in with a melting point of 75 to 77 °C. The half-inhibitory concentration (IC50) in series [1] was determined as 0.0214 µM.

Compound `O/N=C/Nc1ccc(N2CCN(C3CCCCC3)CC2)c(C(F)(F)F)c1` [Compound 110] registered a melting point of 93 to 96 °C. Also, the IC50 in series [1] came to 0.531 µM.

On to `Cl.OCCN1CCN(c2ccc(N/C=N/O)cc2Cl)CC1` [Compound 81], for which the melting point is 200 to 202 °C (dec.). In addition, in series [1], the IC50 stood at 0.0233 µM.

With `Cl.OCCN1CCN(c2ccc(N/C=N/O)cc2)CC1` [Compound 79], the melting point is 170 °C (dec.). Further, the IC50 in series [1] amounted to 0.0719 µM.

`O/N=C/Nc1ccc(N2CCC3(CC2)OCCO3)c(F)c1` [Compound 34] registered a melting point of 165 to 167 °C. The IC50 in series [1] came to 0.007 µM.

`CCN1CCN(c2ccc(N/C=N/O)cc2C(F)(F)F)CC1` [Compound 77]: the melting point was 158 to 159 °C. In addition, in series [1], the IC50 turned out to be 0.509 µM.

In turn, `O/N=C/Nc1ccc(N2CCCCCC2)c(Br)c1` [Compound 24] yielded a melting point of 103.5 to 105 °C. The half-maximal inhibitory concentration (IC50) in series [1] amounted to 0.0042 µM.

For the compound `CN(C)CCN1CCN(c2ccc(N/C=N/O)cc2)CC1.Cl` [Compound 86], the melting point is 188 to 190 °C (dec.). For the same compound, the IC50 in series [1] came to 0.963 µM.

In turn, `CN1CCN(c2ccc(N/C=N/O)cc2Cl)CC1` [Compound 68] yielded a melting point of 188 to 189 °C. Further, the IC50 in series [1] came to 0.107 µM.

`O/N=C/Nc1ccc(N2CCCCCC2)c(F)c1` [Compound 22] gave a melting point of 112 to 115 °C. For the same compound, in series [1], the IC50 turned out to be 0.0021 µM.

`Cc1cc(N2CCC(CCO)CC2)ccc1N/C=N/O` [Compound 58] had a melting point of 152 to 154 °C. For the same compound, the half-inhibitory concentration (IC50) in series [1] stood at 0.0312 µM.

`CCN1CCN(c2ccc(N/C=N/O)cc2F)CC1` [Compound 73] returned a melting point of 197 to 200 °C. Besides, in series [1], the IC50 is 0.0372 µM.

As to `COc1cc(N2CCOCC2)ccc1N/C=N/O` [Compound 130], the melting point is 189 to 190 °C (dec.). In series [1], the IC50 is 0.0461 µM.

In the case of `O/N=C/Nc1ccc(N2CCC3(CC2)OCCO3)cc1` [Compound 33], the melting point fell in the range of 157 to 158.5 °C. In addition, the IC50 in series [1] was found to be 0.0036 µM.

Compound `O/N=C/Nc1ccc(N2CCC(O)CC2)c(Cl)c1` [Compound 49] showed a melting point of 93 to 97 °C. Further, the IC50 in series [1] is 0.0034 µM.

As for `OCCN1CCN(c2ccc(N/C=N/O)cc2Br)CC1` [Compound 82], the melting point was 190 to 192 °C (dec.). Moreover, the IC50 in series [1] came to 0.044 µM.

The values are drawn from patent US7214714B2, “20-hydroxyeicosatetraenoic acid production inhibitors” (Taisho Pharmaceutical Co. Ltd., priority 2001, dated 2007).
